Literature values, collected in patent US20210268011A1, “AMPK ACTIVATING AGENT” (ORYZA OIL & FAT CHEMICAL CO., LTD., priority 2018, published 2021).

Tested on: AMPK
Details: recent research, Non-patent Document 4; cited from earlier work

CN(C)C(=N)N=C(N)N [metformin]
AMPK activation: activated
